# Test results reported in patent US20110200535A1, “DAA-PYRIDINE AS PERIPHERAL BENZODIAZEPINE RECEPTOR LIGAND FOR DIAGNOSTIC IMAGING AND PHARMACEUTICAL TREATMENT” (BAYER SCHERING PHARMA AKTIENGESELLSCHAFT, priority 2008, published 2011).
# “And” between values parts separate entries of the source, which are not always exact repeats. Equal entries are not always repeated.
# Legend:
# [1] = Biodistribution of [^18F]-radioactivity in healthy male NMRI mice after intravenous injection (gamma counter); format: in vivo; conditions: for [^18F]-radioactivity in adrenals / [^18F]-radioactivity in blood / [^18F]-radioactivity in bone / [^18F]-radioactivity in brain (brain uptake) / [^18F]-radioactivity in fat / [^18F]-radioactivity in heart / [^18F]-radioactivity in intestine / [^18F]-radioactivity in kidney / [^18F]-radioactivity in liver / [^18F]-radioactivity in lung / [^18F]-radioactivity in muscle / [^18F]-radioactivity in pancreas / [^18F]-radioactivity in skin / [^18F]-radioactivity in spleen / [^18F]-radioactivity in stomach / [^18F]-radioactivity in testes / [^18F]-radioactivity in thyroid: normal mice, i.v., decay corrected
# Protocol: (§1) The biodistribution of [^18F]-2d and [^18F]-5d was investigated in healthy male NMRI mice (28.3-35.6 g body weight, n=3 animals per time point) at 2, 5, 30, 60 and 180/240 min after intravenous injection of 0.264 MBq [^18F]-2d and 0.268 MBq [^18F]-5d per animal, respectively. Until the indicated time points urine and faeces were quantitatively collected. At the respective time points the mice were sacrificed and the tissues were removed. [^18F]-radioactivity was analyzed in a gamma counter (Tab. 1.1, 2.1 and 1.2, 2.2).
# [2] = Excretion of [^18F]-radioactivity via urine and faeces in normal mice (gamma counter); format: in vivo; conditions: i.v., decay corrected
# Protocol: as §1
# [3] = target: T1, peripheral benzodiazepine receptor (PBR) (Rattus norvegicus, UniProt P16257); experiment: Ex vivo autoradiography of brain sections, rat kainic acid induced epilepsy model; format: in vivo; conditions: for Hipp/Cereb ratio (signal-to-background ratio, hippocampus/cerebellum): rat kainic acid model, 30 min ex vivo autoradiography
# T1 construct: from tissue; host or cells: rat brain (hippocampus, cerebellum) after i.v. tracer injection
# Protocol: Using a rat kainic acid induced epilepsy model and respective sham controls the accumulation of [^18F]-2d and [^18F]-5d was visualized ex vivo. In brief, epilepsy was induced in rats by injecting kainic acid i.p. At day eight after the start of the kainic acid treatment [^18F]-2d and [^18F]-5d were injected into the tail vein of the rats and their sham treated controls (PBS instead of kainic acid) at a dose of 25.8-35.8 MBq (approximately 1.0 μg) per rat. Thirty minutes after intravenous injection the rats were sacrificed, the brains were taken out, snap frozen and sliced transversally in a cryostat. The slices were exposed to PhosphoImager plates over night. The resulting autoradiographic signals were analyzed qualitatively and quantitatively (FIG. 2.1 A and C, 2.2 A and C). […] To determine the specificity of the [^18F]-2d and [^18F]-5d binding, kainic acid treated rats were co-injected with [^19F]-2e and [^19F]-5e, respectively.
# The autoradiographic signals were quantified. The signal intensity in a hippocampal region of interest (ROI) was measured and compared to a ROI in the cerebellum, that was used as reference region.
# [4] = cited from earlier work
# [5] = target: PBR (Homo sapiens, UniProt P30536); experiment: PBR binding, [^3H]-PK11195
# [6] = target: CBR (central diazepine receptor); experiment: CBR binding, [^3H]-Flumazenil
# Sequence of PBR (P30536 whole entry, species assumed): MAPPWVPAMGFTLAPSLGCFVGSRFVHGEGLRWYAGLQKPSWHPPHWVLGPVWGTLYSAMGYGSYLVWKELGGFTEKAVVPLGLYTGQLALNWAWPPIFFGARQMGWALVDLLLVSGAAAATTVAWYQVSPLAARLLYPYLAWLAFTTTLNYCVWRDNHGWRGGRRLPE
structure (smiles),measurement,setting,value
"COc1ccc(OCC[18F])c(CN(C(C)=O)c2cccnc2Oc2cccc(C)c2C)c1 [[^18F]-5d, N-[2-(2,3-dimethylphenoxy)pyridin-3-yl]-N-[2-(2-[^18F]fluoroethoxy)-5-methoxybenzyl]acetamide]",Initial elimination of the radioactivity from the brain,"[1]; mice, 30 min p.i.",ca. 73%
same,"Elimination from mouse brain, 2 min/30 min ratio of brain uptake (% ID/g)","[1]; mice, brain, 2 min to 30 min",3.7
same,[^18F]-radioactivity in adrenals,[1]; 2 min,9.90 ± 1.17 % injected dose/g
same,[^18F]-radioactivity in blood,[1]; 2 min,2.75 ± 0.40 % injected dose/g
same,[^18F]-radioactivity in bone,[1]; 2 min,1.02 ± 0.31 % injected dose/g
same,[^18F]-radioactivity in brain (brain uptake),[1]; 2 min,1.61±0.23 % injected dose/g
same,[^18F]-radioactivity in fat,[1]; 2 min,0.24 ± 0.08 % injected dose/g
same,[^18F]-radioactivity in heart,[1]; 2 min,17.21 ± 1.43 % injected dose/g
same,[^18F]-radioactivity in intestine,[1]; 2 min,0.77 ± 0.24 % injected dose/g
same,[^18F]-radioactivity in kidney,[1]; 2 min,6.15 ± 1.95 % injected dose/g
same,[^18F]-radioactivity in liver,[1]; 2 min,1.51 ± 0.38 % injected dose/g
same,[^18F]-radioactivity in lung,[1]; 2 min,65.87 ± 15.87 % injected dose/g
same,[^18F]-radioactivity in muscle,[1]; 2 min,1.23 ± 0.27 % injected dose/g
same,[^18F]-radioactivity in pancreas,[1]; 2 min,1.54 ± 0.34 % injected dose/g
same,[^18F]-radioactivity in skin,[1]; 2 min,0.52 ± 0.02 % injected dose/g
same,[^18F]-radioactivity in spleen,[1]; 2 min,1.40 ± 0.06 % injected dose/g
same,[^18F]-radioactivity in stomach,[1]; 2 min,2.03 ± 1.05 % injected dose/g
same,[^18F]-radioactivity in testes,[1]; 2 min,0.50 ± 0.01 % injected dose/g
same,[^18F]-radioactivity in thyroid,[1]; 2 min,3.97 ± 1.12 % injected dose/g
same,[^18F]-radioactivity in adrenals,[1]; 5 min,28.94 ± 11.26 % injected dose/g
same,[^18F]-radioactivity in blood,[1]; 5 min,2.13 ± 0.23 % injected dose/g
same,[^18F]-radioactivity in bone,[1]; 5 min,1.41 ± 0.19 % injected dose/g
same,[^18F]-radioactivity in brain (brain uptake),[1]; 5 min,1.13 ± 0.22 % injected dose/g
same,[^18F]-radioactivity in fat,[1]; 5 min,0.24 ± 0.03 % injected dose/g
same,[^18F]-radioactivity in heart,[1]; 5 min,18.45 ± 1.69 % injected dose/g
same,[^18F]-radioactivity in intestine,[1]; 5 min,1.42 ± 0.02 % injected dose/g
same,[^18F]-radioactivity in kidney,[1]; 5 min,8.53 ± 1.50 % injected dose/g
same,[^18F]-radioactivity in liver,[1]; 5 min,2.19 ± 31^ % injected dose/g
same,[^18F]-radioactivity in lung,[1]; 5 min,45.38 ± 5.54 % injected dose/g
same,[^18F]-radioactivity in muscle,[1]; 5 min,1.89 ± 0.32 % injected dose/g
same,[^18F]-radioactivity in pancreas,[1]; 5 min,2.37 ± 0.56 % injected dose/g
same,[^18F]-radioactivity in skin,[1]; 5 min,0.79 ± 0.07 % injected dose/g
same,[^18F]-radioactivity in spleen,[1]; 5 min,3.25 ± 0.15 % injected dose/g
same,[^18F]-radioactivity in stomach,[1]; 5 min,3.04 ± 0.49 % injected dose/g
same,[^18F]-radioactivity in testes,[1]; 5 min,0.71 ± 0.10 % injected dose/g
same,[^18F]-radioactivity in thyroid,[1]; 5 min,4.25 ± 0.79 % injected dose/g
same,[^18F]-radioactivity in adrenals,[1]; 30 min,12.31 ± 0.43 % injected dose/g
same,[^18F]-radioactivity in blood,[1]; 30 min,0.80 ± 0.17 % injected dose/g
same,[^18F]-radioactivity in bone,[1]; 30 min,2.05 ± 0.08 % injected dose/g
same,[^18F]-radioactivity in brain (brain uptake),[1]; 30 min,0.44±0.15 % injected dose/g and 0.44 ± 0.51 % injected dose/g
same,[^18F]-radioactivity in fat,[1]; 30 min,0.61 ± 0.26 % injected dose/g
same,[^18F]-radioactivity in heart,[1]; 30 min,7.53 ± 2.41 % injected dose/g
same,[^18F]-radioactivity in intestine,[1]; 30 min,2.48 ± 0.78 % injected dose/g
same,[^18F]-radioactivity in kidney,[1]; 30 min,9.53 ± 0.82 % injected dose/g
same,[^18F]-radioactivity in liver,[1]; 30 min,3.52 ± 1.35 % injected dose/g
same,[^18F]-radioactivity in lung,[1]; 30 min,9.83 ± 1.66 % injected dose/g
same,[^18F]-radioactivity in muscle,[1]; 30 min,2.14 ± 0.31 % injected dose/g
same,[^18F]-radioactivity in pancreas,[1]; 30 min,2.46 ± 0.19 % injected dose/g
same,[^18F]-radioactivity in skin,[1]; 30 min,1.23 ± 0.21 % injected dose/g
same,[^18F]-radioactivity in spleen,[1]; 30 min,5.68 ± 0.59 % injected dose/g
same,[^18F]-radioactivity in stomach,[1]; 30 min,3.01 ± 0.70 % injected dose/g
same,[^18F]-radioactivity in testes,[1]; 30 min,0.75 ± 0.19 % injected dose/g
same,[^18F]-radioactivity in thyroid,[1]; 30 min,3.81 ± 0.42 % injected dose/g
same,[^18F]-radioactivity in adrenals,[1]; 60 min,16.66 ± 2.86 % injected dose/g
same,[^18F]-radioactivity in blood,[1]; 60 min,0.75 ± 0.01 % injected dose/g
same,[^18F]-radioactivity in bone,[1]; 60 min,1.69 ± 0.26 % injected dose/g
same,[^18F]-radioactivity in brain (brain uptake),[1]; 60 min,0.34 ± 0.06 % injected dose/g
same,[^18F]-radioactivity in fat,[1]; 60 min,3.27 ± 0.30 % injected dose/g
same,[^18F]-radioactivity in heart,[1]; 60 min,5.76 ± 0.87 % injected dose/g
same,[^18F]-radioactivity in intestine,[1]; 60 min,3.31 ± 0.16 % injected dose/g
same,[^18F]-radioactivity in kidney,[1]; 60 min,9.57 ± 0.76 % injected dose/g
same,[^18F]-radioactivity in liver,[1]; 60 min,2.35 ± 0.35 % injected dose/g
same,[^18F]-radioactivity in lung,[1]; 60 min,6.46 ± 1.07 % injected dose/g
same,[^18F]-radioactivity in muscle,[1]; 60 min,2.13 ± 0.21 % injected dose/g
same,[^18F]-radioactivity in pancreas,[1]; 60 min,2.34 ± 0.48 % injected dose/g
same,[^18F]-radioactivity in skin,[1]; 60 min,1.39 ± 0.10 % injected dose/g
same,[^18F]-radioactivity in spleen,[1]; 60 min,5.79 ± 0.10 % injected dose/g
same,[^18F]-radioactivity in stomach,[1]; 60 min,4.21 ± 0.25 % injected dose/g
same,[^18F]-radioactivity in testes,[1]; 60 min,0.90 ± 0.10 % injected dose/g
same,[^18F]-radioactivity in thyroid,[1]; 60 min,3.21 ± 0.75 % injected dose/g
same,[^18F]-radioactivity in adrenals,[1]; 240 min,13.93 ± 6.07 % injected dose/g
same,[^18F]-radioactivity in blood,[1]; 240 min,0.60 ± 0.07 % injected dose/g
same,[^18F]-radioactivity in bone,[1]; 240 min,2.6 % injected dose/g and 2.59 ± 0.56 % injected dose/g
same,[^18F]-radioactivity in brain (brain uptake),[1]; 240 min,0.32 ± 0.08 % injected dose/g
same,[^18F]-radioactivity in fat,[1]; 240 min,0.86 ± 0.10 % injected dose/g
same,[^18F]-radioactivity in heart,[1]; 240 min,2.21 ± 0.24 % injected dose/g
same,[^18F]-radioactivity in intestine,[1]; 240 min,3.96 ± 0.16 % injected dose/g
same,[^18F]-radioactivity in kidney,[1]; 240 min,6.84 ± 0.69 % injected dose/g
same,[^18F]-radioactivity in liver,[1]; 240 min,1.76 ± 0.23 % injected dose/g
same,[^18F]-radioactivity in lung,[1]; 240 min,3.42 ± 0.73 % injected dose/g
same,[^18F]-radioactivity in muscle,[1]; 240 min,1.32 ± 0.11 % injected dose/g
same,[^18F]-radioactivity in pancreas,[1]; 240 min,1.41 ± 0.22 % injected dose/g
same,[^18F]-radioactivity in skin,[1]; 240 min,1.47 ± 0.06 % injected dose/g
same,[^18F]-radioactivity in spleen,[1]; 240 min,3.02 ± 0.25 % injected dose/g
same,[^18F]-radioactivity in stomach,[1]; 240 min,3.43 ± 0.54 % injected dose/g
same,[^18F]-radioactivity in testes,[1]; 240 min,0.94 ± 0.12 % injected dose/g
same,[^18F]-radioactivity in thyroid,[1]; 240 min,2.50 ± 0.15 % injected dose/g
same,Excretion of [^18F]-radioactivity via faeces,[2]; 2 min,0.00 ± 0.00 % injected dose
same,Excretion of [^18F]-radioactivity via urine,[2]; 2 min,0.02 ± 0.02 % injected dose
same,Excretion of [^18F]-radioactivity via faeces,[2]; 5 min,0.00 ± 0.00 % injected dose
same,Excretion of [^18F]-radioactivity via urine,[2]; 5 min,0.04 ± 0.00 % injected dose
same,Excretion of [^18F]-radioactivity via faeces,[2]; 30 min,0.03 ± 0.02 % injected dose
same,Excretion of [^18F]-radioactivity via urine,[2]; 30 min,2.33 ± 1.20 % injected dose
same,Excretion of [^18F]-radioactivity via faeces,[2]; 60 min,0.04 ± 0.02 % injected dose
same,Excretion of [^18F]-radioactivity via urine,[2]; 60 min,4.21 ± 0.97 % injected dose
same,Excretion of [^18F]-radioactivity via faeces,[2]; 240 min,0.74±1.01 % injected dose
same,Excretion of [^18F]-radioactivity via urine,[2]; 240 min,15.24±1.25 % injected dose
same,Specificity of binding: autoradiographic signal on co-injection of the corresponding [^19F] compound,"[3]; kainic acid treated rats, co-injected with [^19F]-2e and [^19F]-5e, respectively",significantly reduced autoradiographic signal
same,"Hipp/Cereb ratio (signal-to-background ratio, hippocampus/cerebellum)",[3],3.0 ± 0.9
same,"Hipp/Cereb ratio (signal-to-background ratio, hippocampus/cerebellum)",[3]; listed as 5d,3.0±0.9
CC(=O)N(Cc1ccccc1OCC[18F])c1cnccc1Oc1ccccc1 [[^18F]-FEPPA],"Brain uptake, standard uptake value (SUV), washout",[4]; after 60 min,0.35
same,"Brain uptake, standard uptake value (SUV)",[4]; at 5 min,0.6
"COc1ccc(Oc2ncccc2N(Cc2cc(OC)ccc2OCCF)C(C)=O)cc1 [[^19F]-2e, N-[2-(2-fluoroethoxy)-5-methoxybenzyl]-N-[2-(4-methoxyphenoxy)pyridin-3-yl]acetamide]",Ki,[5],3.6 ± 1.3 nM
same,Ki,[6],> 20000 nM
